Reference: the CheMixHub drug solubility set

Experiment: xn = mol fraction of the nth substance listed, in the solute-free solvent

Cc1cc(Cl)cc(C(=O)O)c1N + CC(C)=O + CCCCCC
solubility (g/100 g solution)
Details | 278.15 K | 283.15 K | 288.15 K | 293.15 K | 298.15 K | 303.15 K | 308.15 K | 313.15 K | 318.15 K | 323.15 K
x2 = 0.2386 | 0.677 | 0.753 | 0.884 | 1.03 | 1.18 | 1.35 | 1.58 | 1.88 | 2.21 | 2.59
x2 = 0.4322 | 1.29 | 1.42 | 1.66 | 1.92 | 2.18 | 2.5 | 2.92 | 3.45 | 4.05 | 4.74
x2 = 0.5923 | 1.87 | 2.05 | 2.39 | 2.75 | 3.12 | 3.56 | 4.16 | 4.9 | 5.75 | 6.71
x2 = 0.7271 | 2.4 | 2.64 | 3.07 | 3.53 | 3.99 | 4.55 | 5.31 | 6.25 | 7.32 | 8.52
x2 = 0.842 | 2.91 | 3.2 | 3.71 | 4.26 | 4.81 | 5.48 | 6.38 | 7.5 | 8.77 | 10.2
x2 = 0.9411 | 3.39 | 3.72 | 4.31 | 4.95 | 5.58 | 6.35 | 7.38 | 8.66 | 10.1 | 11.7

O=C(O)c1ccc(-n2nc(-c3ccccc3O)nc2-c2ccccc2O)cc1 + CC#N + O
298.15 K
Details | solubility (g/100 g solution)
x2 = 0.04651 | 0.126
x2 = 0.0989 | 0.161
x2 = 0.1583 | 0.316
x2 = 0.2264 | 0.736
x2 = 0.3051 | 1.86
x2 = 0.397 | 3.21
x2 = 0.506 | 4.64
x2 = 0.6372 | 5.9
x2 = 0.798 | 5.08

O=C(O)c1ccc(-n2nc(-c3ccccc3O)nc2-c2ccccc2O)cc1 + CCO + CC#N
298.15 K
Details | solubility (g/100 g solution)
x2 = 0.09009 | 4.09
x2 = 0.1822 | 7.7
x2 = 0.2764 | 11.7
x2 = 0.3727 | 15.7
x2 = 0.4712 | 18.8
x2 = 0.572 | 21.2
x2 = 0.6752 | 21.4
x2 = 0.7809 | 19.3
x2 = 0.8891 | 15.9

Cl.c1ccc2c(CC3=NCCN3)cccc2c1 + CO + CCOC(C)=O
solubility (g/100 g solution)
Details | 278.15 K | 283.15 K | 288.15 K | 293.15 K | 298.15 K | 303.15 K | 308.15 K | 313.15 K | 318.15 K | 323.15 K
x2 = 0.234 | 0.0388 | 0.0424 | 0.0488 | 0.0564 | 0.0653 | 0.0746 | 0.0856 | 0.0943 | 0.107 | 0.124
x2 = 0.4074 | 0.414 | 0.448 | 0.483 | 0.536 | 0.585 | 0.641 | 0.701 | 0.757 | 0.832 | 0.9
x2 = 0.5409 | 1.28 | 1.46 | 1.64 | 1.85 | 2.05 | 2.3 | 2.54 | 2.8 | 3.09 | 3.43
x2 = 0.647 | 2.35 | 2.79 | 3.18 | 3.62 | 4.14 | 4.79 | 5.44 | 6 | 6.94 | 7.75
x2 = 0.7342 | 2.92 | 3.55 | 4.1 | 4.91 | 5.54 | 6.21 | 7.05 | 7.84 | 8.87 | 9.75
x2 = 0.8048 | 4.02 | 4.75 | 5.56 | 6.6 | 7.64 | 8.62 | 10.1 | 11.2 | 12.5 | 14
x2 = 0.8651 | 4.96 | 5.72 | 6.88 | 8.2 | 9.51 | 11.3 | 12.9 | 14.3 | 15.7 | 17.4
x2 = 0.9166 | 5.87 | 6.98 | 8.13 | 9.66 | 11.2 | 13.1 | 15 | 17.1 | 19 | 20.8
x2 = 0.9612 | 6.37 | 7.47 | 8.84 | 10.6 | 12.3 | 14.4 | 16.6 | 18.9 | 21.1 | 23.5

N#CC(c1ccc(Cl)cc1)c1c(Cl)cc(-n2ncc(=O)[nH]c2=O)cc1Cl (centres undefined) + CC(C)=O + CCO
solubility (g/100 g solution)
Details | 283.15 K | 288.15 K | 293.15 K | 298.15 K | 303.15 K | 308.15 K | 313.15 K | 318.15 K | 323.15 K
x2 = 0.1655 | 2.81 | 3.32 | 3.87 | 4.51 | 5.25 | 6.03 | 6.91 | 7.89 | 8.92
x2 = 0.3459 | 4.12 | 4.81 | 5.56 | 6.42 | 7.41 | 8.46 | 9.6 | 10.9 | 12.2
x2 = 0.5434 | 5.39 | 6.26 | 7.2 | 8.24 | 9.47 | 10.8 | 12.2 | 13.7 | 15.2
x2 = 0.7604 | 6.63 | 7.67 | 8.77 | 10 | 11.4 | 13 | 14.6 | 16.3 | 18.1

O=C(O)c1ccc(-n2nc(-c3ccccc3O)nc2-c2ccccc2O)cc1 + CO + CC#N
298.15 K
Details | solubility (g/100 g solution)
x2 = 0.1246 | 4.33
x2 = 0.2426 | 7.73
x2 = 0.3544 | 11.2
x2 = 0.4606 | 14.2
x2 = 0.5616 | 16.4
x2 = 0.6577 | 17.6
x2 = 0.7493 | 18
x2 = 0.8367 | 17.2
x2 = 0.9202 | 15.3

Cc1nc(C)c(C)nc1C + CCCCO + CC#N
solubility (g/100 g solution)
Details | 273.15 K | 278.15 K | 283.15 K | 288.15 K | 293.15 K | 298.15 K | 303.15 K | 308.15 K | 313.15 K
x2 = 0.1 | 14 | 16.4 | 19.4 | 21.5 | 27.1 | 29.5 | 36.1 | 39.3 | 44.2
x2 = 0.2 | 18.3 | 21 | 23.4 | 27.1 | 31.6 | 34.6 | 39.8 | 43.8 | 48.2
x2 = 0.3 | 21.2 | 24.6 | 26.9 | 30.9 | 35.3 | 38.2 | 42.8 | 46.6 | 50.5
x2 = 0.4 | 22.8 | 25.9 | 28.7 | 33 | 37.8 | 40.3 | 44.8 | 48.5 | 52.8
x2 = 0.5 | 23.7 | 26.6 | 30.4 | 34 | 39.2 | 41.5 | 45.7 | 49.3 | 53.6
x2 = 0.6 | 24.5 | 26.1 | 30.6 | 34.2 | 39.4 | 41.6 | 45.7 | 50 | 53.9
x2 = 0.7 | 24.3 | 25.7 | 30.1 | 33.6 | 39.3 | 41.5 | 44.8 | 50.1 | 53.6
x2 = 0.8 | 23.5 | 24.9 | 29.4 | 33 | 38.4 | 41 | 43.8 | 49.6 | 53
x2 = 0.9 | 21.8 | 23.6 | 27.9 | 30.6 | 36.3 | 39.2 | 41.8 | 47.9 | 51.3

Cl.c1ccc2c(CC3=NCCN3)cccc2c1 + COCCO + CC(C)O
solubility (g/100 g solution)
Details | 278.15 K | 283.15 K | 288.15 K | 293.15 K | 298.15 K | 303.15 K | 308.15 K | 313.15 K | 318.15 K | 323.15 K
x2 = 0.08067 | 0.345 | 0.391 | 0.44 | 0.493 | 0.56 | 0.628 | 0.702 | 0.778 | 0.867 | 0.926
x2 = 0.1649 | 0.526 | 0.602 | 0.687 | 0.775 | 0.873 | 0.969 | 1.09 | 1.19 | 1.32 | 1.42
x2 = 0.2529 | 0.638 | 0.792 | 0.944 | 1.03 | 1.25 | 1.45 | 1.56 | 1.82 | 1.98 | 2.32
x2 = 0.3449 | 0.753 | 0.926 | 1.09 | 1.32 | 1.53 | 1.8 | 2.05 | 2.36 | 2.58 | 2.87
x2 = 0.4412 | 1.03 | 1.18 | 1.29 | 1.51 | 1.68 | 1.89 | 2.09 | 2.36 | 2.6 | 2.87
x2 = 0.5422 | 1.45 | 1.58 | 1.73 | 1.92 | 2.17 | 2.43 | 2.69 | 2.97 | 3.24 | 3.61
x2 = 0.6482 | 1.84 | 2.01 | 2.28 | 2.46 | 2.77 | 2.98 | 3.37 | 3.59 | 3.82 | 4.19
x2 = 0.7595 | 2.35 | 2.52 | 2.78 | 3.06 | 3.34 | 3.67 | 4.04 | 4.45 | 4.93 | 5.36
x2 = 0.8767 | 2.49 | 2.71 | 3.03 | 3.29 | 3.7 | 3.95 | 4.34 | 4.64 | 4.96 | 5.33
